# Results reported in EP2140864A2 (H. Lundbeck A/S, priority 2001, dated 2002).
# Target: T1, human GAL3 receptor (Homo sapiens, UniProt O60755)
# T1 construct: expressed in transfected cells
# T1 sequence (O60755 1-368): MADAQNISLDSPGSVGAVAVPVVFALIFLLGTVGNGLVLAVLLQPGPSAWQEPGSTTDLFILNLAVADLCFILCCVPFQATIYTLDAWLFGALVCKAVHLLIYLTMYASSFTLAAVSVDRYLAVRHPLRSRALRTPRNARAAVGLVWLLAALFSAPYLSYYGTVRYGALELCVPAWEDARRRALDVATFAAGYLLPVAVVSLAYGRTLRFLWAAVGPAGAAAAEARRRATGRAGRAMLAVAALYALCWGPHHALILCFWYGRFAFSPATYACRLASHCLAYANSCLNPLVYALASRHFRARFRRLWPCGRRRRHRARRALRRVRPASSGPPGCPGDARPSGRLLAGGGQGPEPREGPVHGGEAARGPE
# Assay: Radioligand binding at cloned human GAL3 receptor
# Conditions: indolones, cloned human receptor; read-out: Ki GalR3
# Procedure: The present invention provides for a method of determining the binding affinity of a GAL3 antagonist, wherein the GAL3 antagonist is dissolved in a "suitable solvent". A "suitable solvent" means one which permits the measurement of binding affinity of the GAL3 antagonist to the human GAL3 receptor at concentrations less than 1 µM, preferably less than 100 nM. Examples of solvents include, but are not limited to, DMSO, ethanol, N,N-dimethylacetamide, or water. For indolones, the preferred solvent is 3% DMSO (final concentration in the assay). For pyrimidines, the preferred solvent is 1% ethanol/0.09% polypuronic acid F-127 (final concentration in the assay). For any other type of compounds, the preferred solvent is the solvent which permits the measurement of binding affinity of a GAL3 antagonist at the lowest concentration. Once a suitable solvent is ascertained for the binding assay of the human GAL3 receptor, the same solvent is used in assays to determine the binding affinity at the GAL1 receptor, the serotonin transporter, the norepinephrine transporter, and the dopamine transporter. A solvent of 0.4% DMSO is used in the central monoamine oxidase enzyme assay.
# The binding properties of the pyrimidines of the present invention were evaluated at the cloned human galanin receptors, GAL1, GAL2, and GAL3, using protocols described herein.
# The binding properties of the indolones of the present invention were evaluated at the cloned human galanin receptors, GAL1, GAL2, and GAL3, using protocols described herein.
# LM(tk-) cells were stably transfected with the human GAL1 or GAL3 receptor. CHO cells were stably transfected with the human GAL2 receptor.
# cDNAs for the human and rat GAL1, and human and rat GAL3 receptors were transfected with a G-418 resistant gene into the mouse fibroblast LM(tk-) cell line by a calcium phosphate transfection method (Cullen, 1987). Stably transfected cells were selected with G-418. Human and rat GAL2 receptors were similarly transfected into CHO cells.
# Membranes were harvested from stably transfected LM(tk-) cells. Adherent cells were washed twice in ice-cold phosphate buffered saline (138 mM NaCl, 8.1 mM Na2HPO4, 2.5 mM KCl, 1.2 mM KH2PO4, 0.9 mM CaCl2, 0.5 mM MgCl2, pH 7.4) and lysed by sonication in ice-cold sonication buffer (20 mM Tris-HCl, 5 mM EDTA, pH 7.7). Large particles and debris were cleared by low speed centrifugation (200 x g, 5 min, 4°C). Membranes were collected from the supernatant fraction by centrifugation (32,000 x g, 18 min, 4°C), washed with ice-cold hypotonic buffer, and collected again by centrifugation (32,000 x g, 18 min, 4°C). The final membrane pellet was resuspended by sonication into a small volume of ice-cold binding buffer (-1 ml for every 5 plates: 10 mM NaCl, 20 mM HEPES, 0.22 mM KH2PO4, 1.26 mM CaCl2, 0.81 mM MgSO4, pH 7.4). Protein concentration was measured by the Bradford method (Bradford, 1976) using Bio-Rad Reagent, with bovine serum albumin as a standard. Membranes were held on ice for up to one hour and used fresh, or flash frozen and stored in liquid nitrogen. Membranes were prepared similarly from CHO cells.
# Galanin Recentors: Binding assays were performed according to the following published methods: human GAL3 (PCT International Publication No. WO 98/15570), human GAL1 (PCT International Publication No. WO 95/2260), human GAL2 (PCT International Publication No. WO 97/26853).
# Binding data were analyzed using nonlinear regression and statistical techniques available in the GraphPAD Prism package (San Diego, CA). Enzymatic assay data were derived from a standard curve of reference compound data.
row,Ki [nM],Compound
1,80,"O=C1/C(=N\c2ccc(-c3ccccc3)cc2)c2ccccc2N1c1ccsc1 [Example 265, (3Z)-3-([1,1'-BIPHENYL]-4-YLIMINO)-1-(3-THIENYL)-1,3-DIHYDRO-2H-INDOL-2-ONE]"
2,18,"O=C1/C(=N\c2ccc(Cl)c(Cl)c2)c2ccccc2N1c1cccc(C(F)(F)F)c1 [Example 256, (3Z)-3-[(3,4-DICHLOROPHENYL)IMINO]-1-[3-(TRIFLUOROMETHYL)PHENYL]-1,3-DIHYDRO-2H-INDOL-2-ONE]"
3,728,"O=C1/C(=N\c2ccc(-c3ccsc3)cc2)c2ccccc2N1c1ccccc1 [Example 304, (3Z)-1-PHENYL-3-{[4-(3-THIENYL)PHENYL]IMINO}-1,3-DIHYDRO-2H-INDOL-2-ONE]"
4,569,"Cc1nc2cc(N=C3C(=O)N(c4ccccc4)c4ccccc43)ccc2s1 (mixture of isomers) [Example 114, 3-[(2-METHYL-1,3-BENZOTHIAZOL-5-YL)IMINO]-1-PHENYL-1,3-DIHYDRO-2H-INDOL-2-ONE]"
5,46,"O=C1/C(=N\c2ccc(I)cc2)c2ccccc2N1c1ccsc1 [Example 262, (3Z)-3-[(4-IODOPHENYL)IMINO]-1-(3-THIENYL)-1,3-DIHYDRO-2H-INDOL-2-ONE]"
6,42,"O=C1/C(=N\c2cccc(Cl)c2)c2ccccc2N1c1ccsc1 [Example 270, (3Z)-3-[(3-CHLOROPHENYL)IMINO]-1-(3-THIENYL)-1,3-DIHYDRO-2H-INDOL-2-ONE]"
7,224,"O=C1/C(=N\c2cccc(C(F)(F)F)c2)c2ccccc2N1c1ccc(-c2ccccc2)cc1 [Example 309, (3Z)-1-[1,1'-BIPHENYL]-4-YL-3-{[3-(TRIFLUOROMETHYL)PHENYL]IMINO}-1,3-DIHYDRO-2H-INDOL-2-ONE]"
8,114,Cc1cccc(/N=C2\C(=O)N(c3ccsc3)c3ccccc32)c1 [Example 271]
9,39,"N#Cc1cccc(/N=C2\C(=O)N(c3ccccc3)c3ccccc32)c1 [Example 288, 3-{[(3Z)-2-OXO-1-PHENYL-1,2-DIHYDRO-3H-INDOL-3-YLIDENE]AMINO}BENZONITRILE]"
10,22,"O=C1/C(=N\c2ccc3c(c2)OC(F)(F)O3)c2ccccc2N1c1ccccc1 [Example 298, (3Z)-3-[(2,2-DIFLUORO-1,3-BENZODIOXOL-5-YL)IMINO]-1-PHENYL-1,3-DIHYDRO-2H-INDOL-2-ONE]"
11,160,O=C1/C(=N\c2ccc(-c3cccnc3)cc2)c2ccccc2N1c1ccccc1 [Example 306]

row,Compound,Ki [nM]
1,O=C1/C(=N\c2cccc(C(F)(F)F)c2)c2ccccc2N1Cc1cccnc1 [Example 277],198
2,O=C1/C(=N\c2ccc(F)c(F)c2)c2ccccc2N1Cc1ccccn1 [Example 278],340

# Same assay, conditions: pyrimidines, cloned human receptor; read-out: Ki GalR3
row,Compound,Ki [nM]
1,Cc1ccc(Nc2cc(N(C)C)nc(N3CCN(Cc4ccco4)CC3)n2)cc1 [Example 231],136
2,CN(C)c1cc(Nc2ccc(Br)cc2Cl)nc(N2CCN(c3ccccn3)CC2)n1 [Example 217],190
3,Cc1ccc(Nc2cc(N(C)C)nc(N3CCN(c4ncccc4C#N)CC3)n2)cc1 [Example 241],261
4,CN(C)c1cc(Nc2ccc(C(F)(F)F)cc2)nc(N2CCN(Cc3ccccc3)CC2)n1 [Example 229],37
5,CN(C)c1cc(NC2CCCCCC2)nc(N2CCN(Cc3ccccc3)CC2)n1 [Example 128],249
6,CN(C)c1cc(NC2CCCCC2)nc(Nc2ccccc2)n1 [Example 66],699
7,COc1cccc(Nc2cc(N(C)C)nc(N3CCN(Cc4cccs4)CC3)n2)c1 [Example 165],139
8,COc1cccc(Nc2cc(N(C)C)nc(N3CCN(CC4CCCCC4)CC3)n2)c1 [Example 145],155
9,CN(C)c1cc(Nc2ccc(C3CCCCC3)cc2)nc(N2CCN(c3cnccn3)CC2)n1 [Example 178],26
10,COc1cccc(Nc2cc(N(C)C)nc(N3CCN(c4ccccn4)CC3)n2)c1 [Example 245],537
11,Cc1ccc(Nc2cc(N(C)C)nc(Nc3ccc(Cl)c(Cl)c3)n2)cc1 [Example 55],48
12,CN(C)c1cc(Nc2ccc(Cl)cc2)nc(N2CCN(c3ccccn3)CC2)n1 [Example 194],248
13,CN(C)c1cc(Nc2ccccc2)nc(Nc2ccccc2)n1 [Example 50],699
14,Cc1ccc(Nc2cc(N3CCCCC3)nc(Nc3ccc(C)cc3)n2)cc1 [Example 4],627
15,CN(C)c1cc(Nc2cccc(C(F)(F)F)c2)nc(N2CCN(c3ccccn3)CC2)n1 [Example 125],75
16,CN(C)c1cc(Nc2cccc(Cl)c2Cl)nc(N2CCN(c3ccccn3)CC2)n1 [Example 218],616
17,Cc1cccc(Nc2cc(N(C)C)nc(Nc3ccccc3)n2)c1 [Example 52],570
18,CN(C)c1cc(Nc2cccc(O)c2)nc(N2CCN(Cc3ccccc3)CC2)n1 [Example 155],316
19,Cc1ccc(Nc2cc(N(C)C)nc(N3CCN(CCc4ccccc4)CC3)n2)cc1 [Example 159],180

row,Compound,Ki [nM]
1,CN(C)c1cc(Nc2cccc(Cl)c2)nc(N2CCN(Cc3ccccc3)CC2)n1 [Example 160],26
2,CN(C)c1cc(Nc2cccc(F)c2)nc(N2CCN(c3ccccn3)CC2)n1 [Example 206],454
3,CN(C)c1cc(Nc2cc(F)c(F)c(F)c2)nc(N2CCN(c3ccccn3)CC2)n1 [Example 221],213
4,Cc1cc(Nc2cc(N(C)C)nc(N3CCN(c4ccccn4)CC3)n2)ccc1F [Example 200],311
5,"Cc1ccc(Nc2cc(N(C)C)nc(N3CCN(c4ccc(C(N)=O)cn4)CC3)n2)cc1 [Example 141, 6-{4-[4-(DIMETHYLAMINO)-6-(4-TOLUDINO)-2-PYRIMIDINYL] -1-PIPERAZINYL}NICOTINAMIDE]",509
6,Cc1ccc(C)c(Nc2cc(N(C)C)nc(N3CCN(c4ccccn4)CC3)n2)c1 [Example 213],165
7,Cc1ccc(Nc2cc(N(C)C)nc(N3CCN(Cc4cccs4)CC3)n2)cc1 [Example 174],325
8,CN(C)c1cc(Nc2ccc(OCc3ccccc3)cc2)nc(N2CCN(c3ccccn3)CC2)n1 [Example 117],61
9,CN(C)c1cc(NC2C3CC4CC(C3)CC2C4)nc(N2CCN(Cc3ccccc3)CC2)n1 (stereo not drawn) [Example 168],50
10,CCC(C)c1ccc(Nc2cc(N(C)C)nc(N3CCN(c4ccccn4)CC3)n2)cc1 (stereo not drawn) [Example 211],58
11,Cc1ccc(Nc2cc(N(C)C)nc(N3CCN(c4cnccn4)CC3)n2)cc1C [Example 183],66
12,Cc1ccc(Nc2cc(N(C)C)nc(N3CCN(c4cccc(C)c4)CC3)n2)cc1 [Example 86],227
13,Cc1ccc(Nc2cc(N(C)C)nc(Nc3ccccc3)n2)cc1 [Example 54],132
14,Cc1ccc(Nc2cc(N(C)C)nc(N3CCN(c4cnccn4)CC3)n2)cc1 [Example 181],750
15,COc1cc(Nc2cc(N(C)C)nc(N3CCN(Cc4ccccc4)CC3)n2)cc(C(F)(F)F)c1 [Example 225],66
16,COc1ccccc1CCNc1nc(Nc2ccc(C)cc2)cc(N(C)C)n1 [Example 150],180
17,CN(C)c1ccc(Nc2cc(N(C)C)nc(N3CCN(Cc4ccccc4)CC3)n2)cc1 [Example 158],941
18,CN(C)c1cc(Nc2ccc(F)c(F)c2F)nc(N2CCN(c3ccccn3)CC2)n1 [Example 198],560
19,CC(C)c1cccc(Nc2cc(N(C)C)nc(N3CCN(c4ccccn4)CC3)n2)c1 [Example 191],75
